For experiment [1], the system named is PI3Kα wide type cell line SK-BR-3. Description: Cell Proliferation IC50 Assay (CellTiter-Glo), SK-BR-3. In kind it is cell-based. Particulars: Homo sapiens; SK-BR-3 (PI3Kα wild type), 72 hours, CellTiter-Glo; read-out: IC50 (μM) SK-BR-3. The source says: (§1) PI3Kα H1047R mutation cell line T-47D and MDA-MB-453, E545K mutation cell line MDA-MB-361 and PI3Kα wide type cell line SK-BR-3 were purchased from Cobioer Biotech (cat. no CBP60397, CBP60386, CBP60383 and CBP60413 respectively). The CellTiter-Glo Direct Cell Proliferation Assay Kit was purchased from Prornega (cat. No. G7573)
(§2) For cell proliferation assay in each cell line: • a. Prepare complete medium (R PMI 1640, DMEM or McCoys): Add FBS and appropriate additives according to the information sheet provided by the vendor. Mix gently. • b. Prepare single cell suspension and count the cell numbers and adjust cells to appropriate density. • c. Add 80 μL of cell suspension to 96-well opaque-walled clear bottom plates according to the planned plate layout and place the plates in the CO2 incubator overnight. • d. Prepare intermediate plate: 10 μl of diluted test compounds or staurosporine solution (200×) is added to a 96 deep well plate. Then 390 μl of culture medium without FBS is added to the respective wells. • e. Transfer 20 μL of the solutions from the above intermediate plate to the wells of the plate prepared containing 80 μL of the culture medium and cells. The total dilution is 200 folds. • f. The cells were then incubated at 5% CO2, 37° C. for 72 hours. • g. Equilibrate the plate and its contents to room temperature for approximately 30 minutes. • h. Add 100 μL of CellTiter-Glo reagent to the assay plate • i. Mix contents for 10 minutes on an orbital shaker to induce cell lysis. • j. Allow the plate to incubate at room temperature for 10 minutes to stabilize luminescent signal, • k. Paste the clear bottom with white back seal and record luminescence with Varioskan LUX plate reader.
(§3) Inhibition % and IC50 value were calculated by the formula described below: […]
(In general: ATP-based viability assays read luminescence as a measure of living cells.)

Experiment [2] concerns PI3Kα H1047R mutation cell line T-47D. The experiment in a line: Cell Proliferation IC50 Assay (CellTiter-Glo), T-47D. To be noted: Homo sapiens, T47D (H1047R), 72 hours, CellTiter-Glo, read-out: IC50 (μM) T47D. The format is cell-based.
Source text: as §1, §2, §3

SMILES strings stand for the structures. Read-outs that look alike come from different tables or passages of the source.

In general, IC50 refers to the midpoint of a concentration-inhibition curve.

`Cc1cc(C(C)Nc2ccccc2C(=O)O)c2oc(-c3ccc(N4CCC(F)(F)CC4)cc3)cc(=O)c2c1` (stereo not drawn) [Example 43, 2-((1-(2-(4-(4,4-difluoropiperidin-1-yl)phenyl)-6-methyl-4-oxo-4H-chromen-8-yl)ethyl)amino)benzoic acid]: the half-inhibitory concentration (IC50) in experiment [1] is > 10 µM; in experiment [2] (T47D, 72 h), 0.28 µM.
The corresponding values for `Cc1cc([C@@H](C)Nc2ccccc2C(=O)O)c2oc(-c3ccc(CN4CCCC4=O)cc3)c(C)c(=O)c2c1` [Example 135, (R)-2-((1-(3,6-dimethyl-4-oxo-2-(4-((2-oxopyrrolidin-1-yl)methyl)phenyl)-4H-chromen-8-yl)ethyl)amino)benzoic acid] are > 10 µM and 0.18 µM.
In the same order, the values of `Cc1cc(C(C)Nc2ccccc2C(=O)O)c2oc(-c3ccc4cnccc4c3)cc(=O)c2c1` (stereo not drawn) [Example 36, 2-((1-(2-(isoquinolin-6-yl)-6-methyl-4-oxo-4H-chromen-8-yl)ethyl)amino)benzoic acid] are > 10 µM and 0.2 µM.
The corresponding values for `Cc1cc(C(C)Nc2ccccc2C(=O)O)c2oc(-c3ccc4c(c3)CNC4=O)cc(=O)c2c1` (stereo not drawn) [Example 5, 2-((1-(6-methyl-4-oxo-2-(1-oxoisoindolin-5-yl)-4H-chromen-8-yl)ethyl)amino)benzoic acid] are > 10 µM and 1.54 µM.
As for `Cc1cc(C(C)Nc2ncccc2C(=O)O)c2oc(-c3ccc4nn(C)cc4c3)cc(=O)c2c1` (stereo not drawn) [Example 113, 2-((1-(6-methyl-2-(2-methyl-2H-indazol-5-yl)-4-oxo-4H-chromen-8-yl)ethyl)amino)nicotinic acid], the 50% inhibitory concentration (IC50) in experiment [1] is > 10 µM; in experiment [2] (T47D, 72 h) it was 0.67 µM.
The corresponding values for `Cc1cc(C(C)Nc2ccccc2C(=O)O)c2oc(-c3cnc(N4CCOCC4)nc3)cc(=O)c2c1` (stereo not drawn) [Example 152, 2-((1-(6-methyl-2-(2-morpholinopyrimidin-5-yl)-4-oxo-4H-chromen-8-yl)ethyl)amino)benzoic acid] are > 10 µM and 6.9 µM.
For the compound `Cc1cc([C@@H](C)Nc2ccccc2C(=O)O)c2oc(-c3ccc(OCC4CCCN4C)cc3)c(C)c(=O)c2c1` (single isomer, unassigned) [Example 172A], the IC50 in experiment [1] is > 10 µM; in experiment [2] (T47D, 72 h), 0.065 µM.
The corresponding values for `Cc1cc([C@@H](C)Nc2ccccc2C(=O)O)c2oc(-c3ccc(-c4cn(C)cn4)cc3)c(C)c(=O)c2c1` [Example 162, (R)-2-((1-(3,6-dimethyl-2-(4-(1-methyl-1H-imidazol-4-yl)phenyl)-4-oxo-4H-chromen-8-yl)ethyl)amino)benzoic acid] are > 10 µM and 0.23 µM.
The corresponding values for `CC(=O)N1CC(c2ccc(-c3cc(=O)c4cc(C)cc(C(C)Nc5ccccc5C(=O)O)c4o3)cc2)C1` (stereo not drawn) [Example 145, 2-((1-(2-(4-(1-acetylazetidin-3-yl)phenyl)-6-methyl-4-oxo-4H-chromen-8-yl)ethyl)amino)benzoic acid] are > 10 µM and 1.6 µM.
For the compound `CC(=O)N1CCN(C(C)c2ccc(-c3oc4c([C@@H](C)Nc5ccccc5C(=O)O)cc(C)cc4c(=O)c3C)cc2)CC1` (stereo partly drawn) [Example 138, 2-(((1R)-1-(2-(4-(1-(4-acetylpiperazin-1-yl)ethyl)phenyl)-3,6-dimethyl-4-oxo-4H-chromen-8-yl)ethyl)amino)benzoic acid], the IC50 in experiment [1] was > 10 µM; in experiment [2] (T47D, 72 h) it was 0.083 µM.
On to `Cc1cc([C@@H](C)Nc2ccccc2C(=O)O)c2oc(-c3ccc(OC4CCN(C)C4)cc3)c(C)c(=O)c2c1` (stereo partly drawn) [Example 160, 2-(((1R)-1-(3,6-dimethyl-2-(4-((1-methylpyrrolidin-3-yl)oxy)phenyl)-4-oxo-4H-chromen-8-yl)ethyl)amino)benzoic acid], for which the IC50 in experiment [1] was > 10 µM; in experiment [2], 0.065 µM.
Consider `Cc1cc(C(C)Nc2ccccc2C(=O)O)c2oc(-c3cc4ccncc4[nH]3)cc(=O)c2c1` (stereo not drawn) [Example 117, 2-((1-(6-methyl-4-oxo-2-(1H-pyrrolo[2,3-c]pyridin-2-yl)-4H-chromen-8-yl)ethyl)amino)benzoic acid], for which the 50% inhibitory concentration (IC50) in experiment [1] is > 10 µM; in experiment [2] (T47D, 72 h), 0.28 µM.
For `Cc1cc([C@@H](C)Nc2ccccc2C(=O)O)c2oc(-c3ccc(N4CCC(N(C)C)CC4)cc3)c(C)c(=O)c2c1` [Example 161, (R)-2-((1-(2-(4-(4-(dimethylamino)piperidin-1-yl)phenyl)-3,6-dimethyl-4-oxo-4H-chromen-8-yl)ethyl)amino)benzoic acid], the 50% inhibitory concentration (IC50) was determined as 6.5 µM in experiment [1] and 0.067 µM in experiment [2] (T47D, 72 h).
In the same order, the values of `Cc1cc(C(C)Nc2ccccc2C(=O)O)c2oc(-c3ccc4c(=O)n(C)cnc4c3)cc(=O)c2c1` (stereo not drawn) [Example 121, 2-((1-(6-methyl-2-(3-methyl-4-oxo-3,4-dihydroquinazolin-7-yl)-4-oxo-4H-chromen-8-yl)ethyl)amino)benzoic acid] are > 10 µM and 0.76 µM.
In the same order, the values of `Cc1cc(C(C)Nc2ccccc2C(=O)O)c2oc(-c3cc4n(c3)CCN(C)C4=O)c(C)c(=O)c2c1` (stereo not drawn) [Example 72, 2-((1-(3,6-dimethyl-2-(2-methyl-1-oxo-1,2,3,4-tetrahydropyrrolo[1,2-a]pyrazin-7-yl)-4-oxo-4H-chromen-8-yl)ethyl)amino)benzoic acid] are > 10 µM and 5.08 µM.
Take `Cc1cc(C(C)Nc2ccccc2C(=O)O)c2oc(-c3cc4cnccc4[nH]3)cc(=O)c2c1` (stereo not drawn) [Example 116]: the IC50 is > 10 µM in experiment [1] and 0.97 µM in experiment [2] (T47D, 72 h).
In the case of `CC(=O)N1CCN(c2ccc(-c3oc4c(C(C)Nc5ccccc5S(N)(=O)=O)cc(C)cc4c(=O)c3C)cc2)CC1` (stereo not drawn) [Example 159, 2-((1-(2-(4-(4-acetylpiperazin-1-yl)phenyl)-3,6-dimethyl-4-oxo-4H-chromen-8-yl)ethyl)amino)benzenesulfonamide], the concentration for half-maximal inhibition (IC50) was > 10 µM in experiment [1] and 0.41 µM in experiment [2] (T47D, 72 h).
Consider `Cc1cc([C@@H](C)Nc2ccccc2C(=O)O)c2oc(-c3ccc(C4CN(C)CCO4)cc3)c(C)c(=O)c2c1` (stereo partly drawn) [Example 167, 2-(((1R)-1-(3,6-dimethyl-2-(4-(4-methylmorpholin-2-yl)phenyl)-4-oxo-4H-chromen-8-yl)ethyl)amino)benzoic acid], for which the IC50 stood at 8.34 µM in experiment [1] and 0.092 µM in experiment [2].
In the same order, the values of `CC(=O)N1CCN(c2ccc(-c3oc4c([C@@H](C)Nc5ccccc5C(=O)O)cc(C)cc4c(=O)c3C)nc2)CC1` [Example 115, (R)-2-((1-(2-(5-(4-acetylpiperazin-1-yl)pyridin-2-yl)-3,6-dimethyl-4-oxo-4H-chromen-8-yl)ethyl)amino)benzoic acid] are 3.43 µM and 0.074 µM.
With `Cc1cc([C@@H](C)Nc2ccccc2C(=O)O)c2oc(-c3ccc(N4CC[C@H](N(C)C)C4)cc3)c(C)c(=O)c2c1` [Example 169, 2-(((R)-1-(2-(4-((S)-3-(dimethylamino)pyrrolidin-1-yl)phenyl)-3,6-dimethyl-4-oxo-4H-chromen-8-yl)ethyl)amino)benzoic acid], the concentration for half-maximal inhibition (IC50) was > 10 µM in experiment [1] and 0.11 µM in experiment [2] (T47D, 72 h).
In the same order, the values of `Cc1cc([C@@H](C)Nc2ccccc2C(=O)O)c2oc(-c3ccc(-c4cnn(C)c4)nc3)cc(=O)c2c1` [Example 164, (R)-2-((1-(6-methyl-2-(6-(1-methyl-1H-pyrazol-4-yl)pyridin-3-yl)-4-oxo-4H-chromen-8-yl)ethyl)amino)benzoic acid] are > 10 µM and 0.38 µM.
As for `Cc1cc(C(C)Nc2ccccc2C(=O)O)c2oc(-c3cc4n(n3)CCN(C)C4=O)c(C)c(=O)c2c1` (stereo not drawn) [Example 73, 2-((1-(3,6-dimethyl-2-(5-methyl-4-oxo-4,5,6,7-tetrahydropyrazolo[1,5-a]pyrazin-2-yl)-4-oxo-4H-chromen-8-yl)ethyl)amino)benzoic acid], the IC50 was > 10 µM in experiment [1] and 2.01 µM in experiment [2] (T47D, 72 h).
In the same order, the values of `CC(Nc1ccccc1C(=O)O)c1cc(F)cc2c(=O)cc(-c3ccc4nn(C)cc4c3)oc12` (stereo not drawn) [Example 101, 2-((1-(6-fluoro-2-(2-methyl-2H-indazol-5-yl)-4-oxo-4H-chromen-8-yl)ethyl)amino)benzoic acid] are > 10 µM and 0.29 µM.
The corresponding values for `Cc1cc(C(C)Nc2ccccc2C(=O)O)c2oc(-c3ccc(-c4cn(C)cn4)cc3)cc(=O)c2c1` (stereo not drawn) [Example 144, 2-((1-(6-methyl-2-(4-(1-methyl-1H-imidazol-4-yl)phenyl)-4-oxo-4H-chromen-8-yl)ethyl)amino)benzoic acid] are > 10 µM and 0.14 µM.
